In BindingDB's records for doi:10.1016/j.ejmech.2016.01.043 (Yonsei University, 2016):

Biological target: 5-hydroxytryptamine receptor 7 (Homo sapiens, UniProt P34969)
Experiment: Displacement of [3H]LSD from 5-HT7 receptor (unknown origin) expressed in CHO-K1 cells by liquid scintillation counting method

5-hydroxytryptamine receptor 7, sequence (P34969 whole entry): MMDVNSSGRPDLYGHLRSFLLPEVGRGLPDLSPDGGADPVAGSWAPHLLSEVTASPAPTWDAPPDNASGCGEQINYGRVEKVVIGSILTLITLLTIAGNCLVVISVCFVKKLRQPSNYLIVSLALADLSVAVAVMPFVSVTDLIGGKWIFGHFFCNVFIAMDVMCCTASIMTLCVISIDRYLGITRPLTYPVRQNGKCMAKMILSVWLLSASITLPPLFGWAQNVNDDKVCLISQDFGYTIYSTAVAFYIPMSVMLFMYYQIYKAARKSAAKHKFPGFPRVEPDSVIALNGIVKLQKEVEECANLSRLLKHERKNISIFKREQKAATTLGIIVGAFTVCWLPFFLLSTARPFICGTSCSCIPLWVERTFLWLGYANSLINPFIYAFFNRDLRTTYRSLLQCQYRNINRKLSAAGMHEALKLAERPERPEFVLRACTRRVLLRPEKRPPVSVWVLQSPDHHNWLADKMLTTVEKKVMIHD

Ki: 794 nM
SMILES: CC1CCCN(CCCCC(=O)n2c3ccccc3c3ccccc32)C1 (stereo unspecified)
